For one compound, IC50 and EC50 results are on record in patent publication US9957273B2, “5-substituted 7- [4-(2-pyridyl)phenylmethylamino] -3-isopropylpyrazolo4,3-D]pyrimidine derivatives, use thereof as medicaments, and pharmaceutical compositions” (USTAV EXPERIMENTALNI BOTANIKY AV CR, V.V.I., priority 2015, dated 2018).

The term IC50 denotes the concentration needed to halve the response being measured. Low readings indicate greater potency, high ones weaker potency.

Structures are written as SMILES.

Test [1] relates to K562 (human chronic myelogenous leukaemia). Description: MTT cytotoxicity assay, leukemic cell line K562. Type of test: cell-based. To be noted: Homo sapiens, K562, 72 h, three days. The method in brief: (§1)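 Seed 2000-5000 cells/well; let settle at least 8 h; add compound at 100 to 0.01 μM, triplicates; incubate three days at 37 °C, 5% CO2; add MTT, replace medium with DMSO after 5 h; read at 620 nm.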

For test [2], the system named is CEM (human lymphoblastoid leukaemia). Description: MTT cytotoxicity assay, leukemic cell line CEM. In kind it is cell-based. To be noted: Homo sapiens, 72 h, three days. In a few lines:
as §1
In general terms: Tetrazolium dyes change colour on reduction, which living cells bring about.

Test [3] relates to PLC/PRF/5 (liver hepatoma). Description: MTT cytotoxicity assay, solid cancer cell line PLC/PRF/5. In kind it is cell-based. To be noted: Homo sapiens, PLC-PRF-5, 72 h, three days. The method in brief: (§2)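 Cells grown in DMEM with FBS and L-glutamine at 37° C, 5% CO2, seeded 4000-10000 per well, settled ≥16 h, then treated in triplicate with compound from 100 to 0.01 μM for three days. MTT added for five hours, formazan dissolved in DMSO, absorbance read at 620 nm against untreated cells.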

In test [4] the test system is HCT116 (colon carcinoma). In words: MTT cytotoxicity assay, solid cancer cell line HCT116. To be noted: Homo sapiens, HCT-116, 72 h, three days. Type of test: cell-based. The method in brief: as §2
The target of test [5] is T1, CDK5/p35 (Homo sapiens, UniProt Q00535).
T1 construct: purchased ProQinase GmbH
In words: CDK5/p35 kinase inhibition (33P-ATP, histone H1). In kind it is biochemical. To be noted: 0.15 μM ATP. Here is the method:
CDK2/Cyclin E kinase was produced in Sf9 insect cells via baculoviral infection and purified on a NiNTA column (Qiagen). […] CDK5/p35 was purchased from ProQinase GmbH.
The reactions were stopped by adding 5 μL of 3% aq H3PO4. Aliquots were spotted onto P-81 phosphocellulose (Whatman), washed 3× with 0.5% aq H3PO4 and finally air-dried.

Test [6] deals with HUVECs (human umbilical vein endothelial cells). Description: HUVEC migration (scratch) assay. Type of test: cell-based. To be noted: 16 h, read-out: Inhibition of migration (EC50). Here is the method: To verify that novel compounds have anti-vascularisation properties, we analyzed their influence on the proliferation and migration of HUVECs. HUVECs (human umbilical vein endothelial cells) were purchased from Promocell (Heidelberg, Germany) and cultured in endothelial cell growth medium (ECGM, Promocell, Heidelberg, Germany) containing 10% FCS (Biochrom, Berlin, Germany). Experiments were performed using cells at passage 3.
For migration assay, confluent HUVECs were scratched with a pipette tip and immediately treated with either starvation medium M199 (serum-free, negative control; PAN Biotech) or full endothelial cell growth medium (positive control). After 16 h, cells were fixed with 3% formaldehyde and images were taken using the TILLvisON system (Lochham, Germany) connected to an Axiovert 200 microscope (Zeiss, Germany). Evaluation of pictures was made by S.CO LifeScience (Garching, Germany). Migration was quantified as the ratio of the area covered with cells and the area of the cell free wound.

T1 sequence (Q00535 whole entry): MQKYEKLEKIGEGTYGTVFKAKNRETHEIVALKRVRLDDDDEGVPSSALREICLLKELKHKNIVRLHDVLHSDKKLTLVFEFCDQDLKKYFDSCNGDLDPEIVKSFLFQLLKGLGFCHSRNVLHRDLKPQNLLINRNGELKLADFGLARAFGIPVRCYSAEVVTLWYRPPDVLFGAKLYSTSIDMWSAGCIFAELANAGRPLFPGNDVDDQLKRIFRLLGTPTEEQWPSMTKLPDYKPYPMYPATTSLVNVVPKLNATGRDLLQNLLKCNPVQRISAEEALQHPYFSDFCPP
T1 sequence (Q15078 whole entry partner): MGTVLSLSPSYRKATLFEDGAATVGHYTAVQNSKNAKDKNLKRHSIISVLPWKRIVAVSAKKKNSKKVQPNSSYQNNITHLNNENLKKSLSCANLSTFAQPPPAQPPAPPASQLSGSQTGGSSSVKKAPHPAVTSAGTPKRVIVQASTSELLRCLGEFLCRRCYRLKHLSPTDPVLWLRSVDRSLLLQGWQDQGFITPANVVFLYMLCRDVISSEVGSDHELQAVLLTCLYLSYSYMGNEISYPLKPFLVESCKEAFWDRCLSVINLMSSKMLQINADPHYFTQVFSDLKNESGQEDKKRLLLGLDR

For the compound `CC(C)c1[nH]nc2c(NCc3ccc(-c4ccccn4)cc3)nc(NCC(O)CN)nc12` (stereo not drawn) [Compound 45], the IC50 in test [1] was 0.7 µM; in test [2], 0.54 µM; in test [3], 0.2 µM; in test [4] it was 0.37 µM; in test [5], 0.017 µM. Besides, in test [6], the EC50 came to 500 nM.
